Patent publication US5204361A, “Method for treating laminitis in equine livestock” (priority 1988, dated 1993)

What was measured:
[1] = tested on: caecal/large colon digesta; experiment: Experiment 2 Part 2: in vitro fermentation with cornstarch, antibiotics at or below 2 ug/ml; format: cell-based, horse; details: for L-lactate / pH: cornstarch 0.75 g per flask, 16 hours, mean
Experimental: (§1) Digesta was taken from the caecum and large colon from recently slaughtered animals and was filtered through nylon gauze (approximately 60 micron apertures). The fluid was diluted 1:1 with a buffer solution described by Bales et al. (1976) and incubated with wheat "corn starch" (with or without antibiotics) at 37° for 16 to 20 hours. Aliquots of digesta diluted with buffer (50 ml) were added to 100 ml conical flasks. The flasks were flushed with carbon dioxide before being sealed with a tightly fitting rubber cap. A 21 gauge needle was inserted through the rubber seal in order to allow gas to escape during the fermentation. On removal from the incubator sub-samples were immediately taken to measure L-lactic acid concentration and pH. For each treatment or level of antibiotic three replicate incubation flasks were used.
Incubation flasks were set up as described above with cornstarch (0.75 g) containing virginiamycin, flavomycin or zinc-bacitracin a levels to provide: 0, 0.25, 0.5, 1.0 and 2 ug antibiotic/ml incubation mixture. These flasks were incubated for 16 hours. Flasks were also set up with 0.75 g cornstarch and no antibiotic equipped with a tap and sampling tube in order to take samples from the incubation vessels at various times during the fermentation. Samples were taken at the start of the incubation and at 2, 4, 6, 8, 12 and 24 h. These were analysed for L-lactate concentration and pH.

[2] = tested on: caecal and large colon contents; experiment: Experiment 2 Part 3: in vitro screening at 2 ug/ml in digesta of four horses; format: cell-based, horse; details: for pH / L-lactate: 2 ug antibiotic/ml, 15 mg cornstarch/ml, 20 hour incubation
Experimental: as §1
All four of the antibiotics, listed above, were incubated as previously described to provide 2 ug antibiotic and 15 mg cornstarch per ml incubation mixture. There was one flask per test and each antibiotic was incubated in digesta from both the caecum and the large colon taken from each of 4 animals. Samples of incubation fluid were taken following a 20 hour incubation and were analysed for L-lactate and pH.

[3] = tested on: caecal/large colon digesta; experiment: Experiment 2 Part 5: efficacy of tylosin relative to virginiamycin, digesta incubated with glucose; format: cell-based, horse; details: digesta incubated with glucose, 37°, 20 hours, mean
Experimental: An in vitro fermentation experiment was conducted to determine the efficacy of tylosin relative to virginiamycin. Samples of strained caecal and large colon digesta (16 ml) were incubated with glucose solution (60 ug/ml) (4 ml) and varying concentrations of either tylosin or virginiamycin representing […], 2.0, 4.0 ug of tylosin or virginiamycin per ml. The 25 ml containers were incubated at 37° for 20 hours. There were three replicates per treatment.

[4] = tested on: horses given controlled doses of ground wheat; experiment: Experiment 3: in vivo action of virginiamycin in horses dosed with ground wheat; design: species or system horse
Experimental: These animals were pre-dosed with virginiamycin by feeding 2 kg of a mixture containing: chaff 1225 g, sugar 225 g, water 450 g and `Stafac 20` 100 g. This provided approximately 2 g virginiamycin/d. The sugar was first dissolved in water before adding the `Stafac 20` and mixing it into a uniform suspension. This mixture was then added to the chaff and mixed for 20 minutes. When this feed was not eaten on the second day on which it was offered the animals were dosed with 125 g `Stafac 20`/head (2.5 g virginiamycin/head), via a stomach tube. On the third day of the experiment the animals were given a dose of ground wheat. This provided approximately 6 mg virginiamycin/kg liveweight. The wheat was mixed in a slurry with water and given in two equal amounts with an interval of about 2 hours between doses. The animals were examined and sampled at 8 hour intervals over a period of 48 hours as described for Experiment 1 above. Times were taken from the first dose of wheat.
Eight horses were used for this experiment. Four animals received virginiamycin and 4 animals received the same treatment but without virginiamycin. The animals which received virginiamycin were pre-dosed for two days prior to administration of the wheat slurry by feeding 640 g of a mixture containing lucerne chaff 495 g, sugar 16.5 g, cornflour 8.3 g, water 115 g, `Stafac 500` 4.95 g. This provided approximately 2.48 g virginiamycin/d. This was prepared in the following way. An evenly mixed slurry of the sugar, cornflour, water and `Stafac 500` was prepared and this was added to the lucerne chaff before mixing thoroughly in a cement mixer. The control animals received 640 g of lucerne chaff without any additive. The doses of wheat administered on the third day provided 12 grams of ground wheat/kg liveweight. Again this was given in two equal amounts with an interval between doses. The wheat given to the horses on the virginiamycin treatment contained `Stafac 20` (20/kg wheat). This provided approximately 4.8 mg virginiamycin/kg liveweight. The animals were examined and sampled at 8 hour intervals over a period of 48 hours as described above for Experiment 1.

[5] = tested on: caecal/large colon digesta; experiment: Experiment 2 Part 5: efficacy of tylosin relative to virginiamycin, digesta incubated with glucose; format: cell-based, horse; details: antibiotic 1.00 μg/ml, 37°, 20 hours, mean

## virginiamycin
[1]; antibiotic 0.25 μg/ml
  L-lactate: 28.4 mmol/L
  pH: 5.45
[1]; antibiotic 0.50 μg/ml
  L-lactate: 28.8 mmol/L
  pH: 5.44
[1]; antibiotic 1.00 μg/ml
  L-lactate: 3.2 mmol/L
  pH: 5.66
[1]; antibiotic 2.00 μg/ml
  L-lactate: 1.4 mmol/L
  pH: 5.78
[1]; at concentrations of 1 ug/ml
  control of lactic acid compared with the other antibiotics: best control of lactic acid
[2]; Horse 1
  pH: 5.40
[2]; Horse 1, mean of caecum and large colon
  L-lactate: 0.3 mmol/L
[2]; Horse 2
  pH: 4.94
[2]; Horse 2, mean of caecum and large colon
  L-lactate: 34.1 mmol/L
[2]; Horse 3
  pH: 5.17
[2]; Horse 3, mean of caecum and large colon
  L-lactate: 7.6 mmol/L
[2]; Horse 4
  pH: 5.27
[2]; Horse 4, mean of caecum and large colon
  L-lactate: 12.3 mmol/L
[2]; Mean of 4 horses
  L-lactate: 13.6 mmol/L
  pH: 5.19
[2]; all horses, 2 ug/ml, p,0.01
  pH of the incubation fluid relative to unmedicated control: significant increase
[2]; all horses, 2 ug/ml, p<0.001
  L-lactate concentration relative to unmedicated control: significant reduction
[3]; antibiotic 0.50 μg/ml
  L-lactate: 25 mmol/L
[3]; antibiotic 2.00 μg/ml
  L-lactate: 11.0 mmol/L
[3]; antibiotic 4.00 μg/ml
  L-lactate: 7.7 mmol/L
[4]; 5 animals dosed with virginiamycin, ground wheat, 48 hours, 3 of 4 controls Obel grade 2
  signs of lameness: none showed any signs of lameness
[4]; 48 hours after wheat slurry, FIG. 4(b)
  faecal pH: no significant change
[4]; Part 1, 2 horses, approx 6 mg virginiamycin/kg liveweight, build up of gas in the caecum
  death after wheat slurry with virginiamycin: one died after 16 hours
[4]; after wheat slurry
  parameters associated with acidosis (blood bicarbonate and pH, and faecal pH): within normal limits
[4]; at 8 and 16 hours after wheat, FIG. 3
  blood L-lactate versus control: significantly higher
[4]; at 16 hours after wheat, FIG. 3
  blood D-lactate: only a minor increase
[4]; by 40 hours after wheat, FIG. 3
  blood L-lactate versus control: higher (p<0.05) in the control animals
[4]; in vivo
  blood D-lactate level: maintained blood D-lactate at a low level
  development of laminitis following excessive carbohydrate intake: protected horses against the development of laminitis
  gas produced during the initial rapid fermentation of the carbohydrate: more gas was produced
  heart rate versus control horses: higher than that of the control horses
  ill effects of the dose, second animal: no ill effects
[4]; virginiamycin prior to and in conjunction with the wheat slurry
  reduction in lameness versus control: significant (p<0.05) reduction
[5]
  L-lactate: 9.3 mmol/L
